Assay results taken from ChEMBL document CHEMBL3603790, “2- and 3-Fluoro-3-deazaneplanocins, 2-fluoro-3-deazaaristeromycins, and 3-methyl-3-deazaneplanocin: Synthesis and antiviral properties” (Bioorg Med Chem, 2015).
Calls of active or inactive are those of the source. The rule behind the calls is not given here.

Tested on: not listed separately
Experiment: Selectivity index, ratio of CC50 for HFF to IC50 for HCMV
Assay type: functional
Settings: not given

Row | Compound | Ratio CC50/IC50
1 | Nc1ncc(F)c2c1ncn2[C@@H]1C=C(CO)[C@@H](O)[C@H]1O | > 1040

Tested on: not listed separately
Experiment: Selectivity index, ratio of CC50 for MDCK cells to IC50 for Influenza A virus H5N1 virus
Assay type: functional
Settings: not given

Row | Compound | Ratio CC50/IC50
2 | Nc1ncc(F)c2c1ncn2[C@@H]1C=C(CO)[C@@H](O)[C@H]1O | 34

Tested on: not listed separately
Experiment: Cytotoxicity against African green monkey Vero cells relative to control
Assay type: cell-based
Settings: chlorocebus sabaeus

Row | Compound | CC50 [µM]
3 | Nc1ncc(F)c2c1ncn2[C@@H]1C=C(CO)[C@@H](O)[C@H]1O | 35.7

Tested on: Cowpox virus
Experiment: Antiviral activity against Cowpox virus infected in HFF after 3 days by neutral red dye-based plaque reduction assay
Assay type: functional, organism-based
Settings: not given

Row | Compound | Activity
4 | Nc1ncc(F)c2c1ncn2[C@@H]1C=C(CO)[C@@H](O)[C@H]1O | inactive

Tested on: MA104
Experiment: Antiviral activity against Parainfluenza virus infected in monkey MA104 cells after 3 days by neutral red dye-based plaque reduction assay
Assay type: functional, cell-based
Settings: Paramyxoviridae

Row | Compound | Activity
5 | Nc1ncc(F)c2c1ncn2[C@@H]1C=C(CO)[C@@H](O)[C@H]1O | inactive

Tested on: not listed separately
Experiment: Cytotoxicity against MDCK cells
Assay type: cell-based, Canis lupus familiaris
Settings: dog, MDCK cells

Row | Compound | CC50 [µM]
6 | Nc1ncc(F)c2c1ncn2[C@@H]1C=C(CO)[C@@H](O)[C@H]1O | 32.5

Tested on: Tacaribe virus
Experiment: Antiviral activity against Tacaribe virus infected in African green monkey Vero 76 cells after 3 days by neutral red dye-based plaque reduction assay
Assay type: functional, organism-based
Settings: Mammarenavirus tacaribeense, 72 h

Row | Compound | IC50 [µM]
7 | Nc1ncc(F)c2c1ncn2[C@@H]1C=C(CO)[C@@H](O)[C@H]1O | < 0.36

Tested on: Influenza A virus
Experiment: Antiviral activity against Influenza A virus H3N2 infected in MDCK cells after 3 days by neutral red dye-based plaque reduction assay
Assay type: functional, organism-based
Settings: not given

Row | Compound | Activity
8 | Nc1ncc(F)c2c1ncn2[C@@H]1C=C(CO)[C@@H](O)[C@H]1O | inactive

Tested on: not listed separately
Experiment: Selectivity index, ratio of CC50 for African green monkey Vero 76 cells to IC50 for Tacaribe virus
Assay type: functional
Settings: not given

Row | Compound | Ratio CC50/IC50
9 | Nc1ncc(F)c2c1ncn2[C@@H]1C=C(CO)[C@@H](O)[C@H]1O | >317

Tested on: unidentified adenovirus
Experiment: Antiviral activity against Adenovirus infected in human A549 cells after 3 days by neutral red dye-based plaque reduction assay
Assay type: functional, organism-based
Settings: not given

Row | Compound | Activity
10 | Nc1ncc(F)c2c1ncn2[C@@H]1C=C(CO)[C@@H](O)[C@H]1O | inactive

Tested on: not listed separately
Experiment: Cytotoxicity against MDCK cells relative to control
Assay type: cell-based, Canis lupus familiaris
Settings: dog

Row | Compound | CC50 [µM]
11 | Nc1ncc(F)c2c1ncn2[C@@H]1C=C(CO)[C@@H](O)[C@H]1O | > 357

Tested on: SARS-CoV
Experiment: Antiviral activity against SARS coronavirus infected in African green monkey Vero E6 cells after 3 days by neutral red dye-based plaque reduction assay
Assay type: functional, organism-based
Settings: Severe acute respiratory syndrome-related coronavirus

Row | Compound | Activity
12 | Nc1ncc(F)c2c1ncn2[C@@H]1C=C(CO)[C@@H](O)[C@H]1O | inactive

Tested on: Yellow fever virus
Experiment: Antiviral activity against Yellow fever virus infected in African green monkey Vero cells after 3 days by neutral red dye-based plaque reduction assay
Assay type: functional, organism-based
Settings: 72 h

Row | Compound | IC50 [µM]
13 | Nc1ncc(F)c2c1ncn2[C@@H]1C=C(CO)[C@@H](O)[C@H]1O | > 224

Tested on: Vaccinia virus
Experiment: Antiviral activity against Vaccinia virus infected in HEL cells after 3 days by neutral red dye-based plaque reduction assay
Assay type: functional, organism-based
Settings: Orthopoxvirus vaccinia

Row | Compound | Activity
14 | Nc1ncc(F)c2c1ncn2[C@@H]1C=C(CO)[C@@H](O)[C@H]1O | inactive

Tested on: Venezuelan equine encephalitis virus
Experiment: Antiviral activity against Venezuelan equine encephalitis virus infected in African green monkey Vero cells after 3 days by neutral red dye-based plaque reduction assay
Assay type: functional, organism-based
Settings: not given

Row | Compound | Activity
15 | Nc1ncc(F)c2c1ncn2[C@@H]1C=C(CO)[C@@H](O)[C@H]1O | inactive

Tested on: Influenza A virus
Experiment: Antiviral activity against Influenza A virus H1N1 infected in MDCK cells after 3 days by neutral red dye-based plaque reduction assay
Assay type: functional, organism-based
Settings: not given

Row | Compound | Activity
16 | Nc1ncc(F)c2c1ncn2[C@@H]1C=C(CO)[C@@H](O)[C@H]1O | inactive

Tested on: HeLa
Experiment: Cytotoxicity against human HeLa cells
Assay type: cell-based
Settings: not given

Row | Compound | Activity
17 | Nc1ncc(F)c2c1ncn2[C@@H]1C=C(CO)[C@@H](O)[C@H]1O | Non-toxic

Tested on: Respiratory syncytial virus
Experiment: Antiviral activity against Respiratory syncytial virus infected in monkey MA104 cells after 3 days by neutral red dye-based plaque reduction assay
Assay type: functional, organism-based
Settings: not given

Row | Compound | Activity
18 | Nc1ncc(F)c2c1ncn2[C@@H]1C=C(CO)[C@@H](O)[C@H]1O | inactive

Tested on: Dengue virus
Experiment: Antiviral activity against Dengue virus infected in African green monkey Vero cells after 3 days by neutral red dye-based plaque reduction assay
Assay type: functional, organism-based
Settings: 72 h

Row | Compound | IC50 [µM]
19 | Nc1ncc(F)c2c1ncn2[C@@H]1C=C(CO)[C@@H](O)[C@H]1O | 7.1

Tested on: not listed separately
Experiment: Cytotoxicity against African green monkey Vero 76 cells relative to control
Assay type: cell-based
Settings: chlorocebus sabaeus

Row | Compound | CC50 [µM]
20 | Nc1ncc(F)c2c1ncn2[C@@H]1C=C(CO)[C@@H](O)[C@H]1O | 114

Tested on: not listed separately
Experiment: Cytotoxicity against African green monkey Vero 76 cells
Assay type: cell-based
Settings: chlorocebus sabaeus, Vero 76 cells

Row | Compound | CC50 [µM]
21 | Nc1ncc(F)c2c1ncn2[C@@H]1C=C(CO)[C@@H](O)[C@H]1O | 36

Tested on: not listed separately
Experiment: Selectivity index, ratio of CC50 for African green monkey Vero cells to IC50 for Dengue virus
Assay type: functional
Settings: not given

Row | Compound | Ratio CC50/IC50
22 | Nc1ncc(F)c2c1ncn2[C@@H]1C=C(CO)[C@@H](O)[C@H]1O | 5

Tested on: not listed separately
Experiment: Cytotoxicity against HFF
Assay type: cell-based
Settings: human, HFF cells

Row | Compound | CC50 [µM]
23 | Nc1ncc(F)c2c1ncn2[C@@H]1C=C(CO)[C@@H](O)[C@H]1O | > 300

Tested on: not listed separately
Experiment: Selectivity index, ratio of CC50 for MDCK cells to IC50 for Influenza B virus
Assay type: functional
Settings: not given

Row | Compound | Ratio CC50/IC50
24 | Nc1ncc(F)c2c1ncn2[C@@H]1C=C(CO)[C@@H](O)[C@H]1O | >1000

Tested on: not listed separately
Experiment: Cytotoxicity against human HeLa Ohio-1 cells
Assay type: cell-based
Settings: not given

Row | Compound | Activity
25 | Nc1ncc(F)c2c1ncn2[C@@H]1C=C(CO)[C@@H](O)[C@H]1O | Non-toxic

Tested on: Enterovirus
Experiment: Antiviral activity against Rhinovirus infected in human HeLa Ohio-1 cells after 3 days by neutral red dye-based plaque reduction assay
Assay type: functional, organism-based
Settings: not given

Row | Compound | Activity
26 | Nc1ncc(F)c2c1ncn2[C@@H]1C=C(CO)[C@@H](O)[C@H]1O | inactive

Tested on: West Nile virus
Experiment: Antiviral activity against WNV infected in African green monkey Vero 76 cells after 3 days by neutral red dye-based plaque reduction assay
Assay type: functional, organism-based
Settings: not given

Row | Compound | Activity
27 | Nc1ncc(F)c2c1ncn2[C@@H]1C=C(CO)[C@@H](O)[C@H]1O | inactive

Tested on: not listed separately
Experiment: Cytotoxicity against monkey MA104 cells
Assay type: cell-based, Macaca mulatta
Settings: rhesus monkey

Row | Compound | Activity
28 | Nc1ncc(F)c2c1ncn2[C@@H]1C=C(CO)[C@@H](O)[C@H]1O | Non-toxic

Tested on: A549
Experiment: Cytotoxicity against human A549 cells
Assay type: cell-based
Settings: not given

Row | Compound | Activity
29 | Nc1ncc(F)c2c1ncn2[C@@H]1C=C(CO)[C@@H](O)[C@H]1O | Non-toxic

Tested on: Human betaherpesvirus 5
Experiment: Antiviral activity against HCMV infected in HFF after 3 days by neutral red dye-based plaque reduction assay
Assay type: functional, organism-based
Settings: Human betaherpesvirus 5, 72 h

Row | Compound | IC50 [µM]
30 | Nc1ncc(F)c2c1ncn2[C@@H]1C=C(CO)[C@@H](O)[C@H]1O | 0.3

Tested on: Rift Valley fever virus
Experiment: Antiviral activity against Rift Valley fever virus infected in African green monkey Vero 76 cells after 3 days by neutral red dye-based plaque reduction assay
Assay type: functional, organism-based
Settings: 72 h

Row | Compound | IC50 [µM]
31 | Nc1ncc(F)c2c1ncn2[C@@H]1C=C(CO)[C@@H](O)[C@H]1O | 6.4

Tested on: Influenza B virus
Experiment: Antiviral activity against Influenza B virus infected in MDCK cells after 3 days by neutral red dye-based plaque reduction assay
Assay type: functional, organism-based
Settings: 72 h

Row | Compound | IC50 [µM]
32 | Nc1ncc(F)c2c1ncn2[C@@H]1C=C(CO)[C@@H](O)[C@H]1O | < 0.36

Tested on: not listed separately
Experiment: Selectivity index, ratio of CC50 for African green monkey Vero 76 cells to IC50 for Rift Valley fever virus
Assay type: functional
Settings: not given

Row | Compound | Ratio CC50/IC50
33 | Nc1ncc(F)c2c1ncn2[C@@H]1C=C(CO)[C@@H](O)[C@H]1O | 5.6

Tested on: Respiratory syncytial virus
Experiment: Antiviral activity against Respiratory syncytial virus infected in human HeLa cells after 3 days by neutral red dye-based plaque reduction assay
Assay type: functional, organism-based
Settings: not given

Row | Compound | Activity
34 | Nc1ncc(F)c2c1ncn2[C@@H]1C=C(CO)[C@@H](O)[C@H]1O | inactive

Tested on: HEL
Experiment: Cytotoxicity against HEL cells
Assay type: cell-based
Settings: human

Row | Compound | Activity
35 | Nc1ncc(F)c2c1ncn2[C@@H]1C=C(CO)[C@@H](O)[C@H]1O | Non-toxic

Tested on: not listed separately
Experiment: Cytotoxicity against African green monkey Vero cells
Assay type: cell-based
Settings: chlorocebus sabaeus, Vero cells

Row | Compound | CC50 [µM]
36 | Nc1ncc(F)c2c1ncn2[C@@H]1C=C(CO)[C@@H](O)[C@H]1O | 224

Molecular target: not listed separately
Experiment: Inhibition of rabbit erythrocytic AdoHcy hydrolase using AdoHcy as substrate assessed as formation of L-homocysteine preincubated for 5 mins followed by substrate addition measured after 1 hr by thiol quantitation reagent-based assay
Parameters: species or system Oryctolagus cuniculus
Settings: not given

Row | Compound | IC50 [µM]
37 | Nc1ncc(F)c2c1ncn2[C@@H]1C=C(CO)[C@@H](O)[C@H]1O | 0.0068

Tested on: Influenza A virus
Experiment: Antiviral activity against Influenza A virus H5N1 infected in MDCK cells after 3 days by neutral red dye-based plaque reduction assay
Assay type: functional, organism-based
Settings: 72 h

Row | Compound | IC50 [µM]
38 | Nc1ncc(F)c2c1ncn2[C@@H]1C=C(CO)[C@@H](O)[C@H]1O | 1

Tested on: not listed separately
Experiment: Cytotoxicity against African green monkey Vero E6 cells
Assay type: cell-based
Settings: chlorocebus sabaeus

Row | Compound | Activity
39 | Nc1ncc(F)c2c1ncn2[C@@H]1C=C(CO)[C@@H](O)[C@H]1O | Non-toxic
